The subject of series [1] is IR-induced pneumonitis. In words: GLA tablets in a lung cancer patient receiving 2nd IR treatment. Type of series: in vivo. The conditions noted are these: one patient. The method, then:
In collaboration with radiation oncologists at the First Affiliated Hospital of Fujian Medical School in China, GLA tablets (produced by Minophagen Co. in Japan and available in pharmacies in China) were administered to a patient who received their 2nd IR treatment for lung cancer. […] To control the progression of pneumonitis, they received dexamethasone treatment. Due to tumor re-growth 9 months after their 1st IR treatment, they received a 2nd IR treatment with warnings that IR may worsen pneumonitis.
In order to mitigate IR-induced lung injury, GLA was administered at a does of 150 mg per day (equivalent to GA about 85 mg per day) starting from the date of 2nd treatment for 3 months. The result was unexpectedly surprising.

Series [2] deals with ACTH (adrenocorticotropic hormone); growth hormone (GH). The conditions noted are these: in vivo. The method, then: The chemical structure of GA is similar to that of cortisol. Thus, this Example investigates whether the long-term use of GA would affect the production of cortisol and cause side effects. The plasma levels of ACTH (adrenocorticotropic hormone), a […], were measured using ELISA at Weeks 6, 7, and 10 after GA-treatments (40 mg/kg, god, p.o).
In addition, plasma levels of growth hormone (GH) were measured using ELISA at Weeks 6, 7, and 10 after GA treatments.

In series [3] the test system is pulmonary fibrosis. In words: Inventors' observation on dexamethasone in pulmonary fibrosis. The format is in vivo. The conditions noted are these: compared to non-treated controls.
In series [4] the test system is inflammatory mediators (IMs), including IL1a, TNFa, PF4 and VCAM-1. In words: Inflammatory mediators in lung homogenates by ELISA, acute phase of IR-induced pneumonitis. Type of series: in vivo, C57BL/6 fibrosis-prone mice. The conditions noted are these: 2.5 days after thoracic IR 15 Gy; treatment from 6 h after IR; vs vehicle, p<0.05. The protocol: (§1) Briefly, C57BL/6 fibrosis-prone mice received a single-dose of thoracic IR at 15 Gy with a dose rate of 1.9 Gy/min. Six hours after IR exposure, the mice were divided into the following treatment groups: 1) normal (received 0 Gy; no treatment); 2) vehicle-treated; 3) GA-treated (30-40 mg/kg/q.o.d) (i.e. every other day) (the GA dosage used herein was derived from the effective dosage for humans (3-4 mg/kg), which is typically 6-10 times lower than that of mice); 4) dexamethasone-treated (Positive Control 1) (Dex, 3 mg/kg, i.m. or p.o. qod); 5) amifostine-treated (Positive Control 2) (Ami, 200 mg/kg/ i.v, 0.5 hr prior to irradiation); and 6) celebrex-treated (Positive Control 3) (30 mg/kg, po, qod).
The mice were sacrificed 2.5 days after IR exposure, and fresh lung tissue homogenates were prepared using lysis buffer mixed with protenase inhibitor cocktails. After protein concentration was adjusted to 1 mg/ml, the fresh lung homogenates were added to ELISA plates at a concentration of 100 μl/well. The levels of inflammatory mediators were measured by ELISA.

Series [5] concerns mice with IR-induced pneumonitis. In words: Lung morphology, plasma exudation and inflammatory cell infiltration, acute phase of IR-induced pneumonitis. Type of series: in vivo, C57BL/6 fibrosis-prone mice. The conditions noted are these: 2.5 days after thoracic IR 15 Gy. The method, then:
as §1
Briefly, C57BL/6 fibrosis-prone mice received a single-dose of thoracic IR at 15 Gy with a dose rate of 1.9 Gy/min and were treated as described in Example 2. The mice were sacrificed 2.5 days after IR exposure, and lung tissues were harvested and analyzed for morphological changes.

For series [6], the system named is mice with IR-induced pulmonary fibrosis. In words: Lung density by cone beam CT scan (CBCT). Type of series: in vivo. The conditions noted are these: for lung density (abnormal increase): 7.5 months after IR 15 Gy, P<0.05. The method, then:
To assess effects of GA on lung density, cone beam CT scan (CBCT) of mouse lungs was performed. CBCT provides a complete 3D 650×650×428 scan (i.e. 428 slices) of the lungs with isotropic resolution at 270 μm (central slice shown in FIG. 11) in 30 seconds. The scanner achieves a CT density sensitivity of ˜[…], and thus, changes in lung density can be discerned. The CBCT imaging data were further analyzed using MATLAB software. The lungs were automatically segmented (FIG. 12A) and a 3D image was generated for each mouse lung (FIG. 12B). To reduce the effect of cardiac motion on the mean value of lung density, boundaries of the lungs were not used for analysis. A histogram of voxel intensity (pulmonary tissue density) of each mouse was created (FIG. 13).

The nature of series [7]: Toxicity of long-term use: activity, fur morphology, body weight. The format is in vivo.
Series [8] has as its system SP-D and IL1a. In words: Plasma levels of SP-D and IL1a, acute phase of IR-induced pneumonitis. The format is in vivo, C57BL/6 fibrosis-prone mice. The conditions noted are these: 2.5 days after thoracic IR; P<0.05. The protocol:
as §1
IR damages lung epithelium and endothelium cells, and causes dysfunction of tight junction, increased cellular permeability, and the loss of integrity of the alveolar-capillary barrier. As a result, SP-D and IL1a abnormally enter into the blood from inflamed pulmonary tissue, leading to elevated plasma levels of SP-D and IL1a.
In this Example, C57BL/6 fibrosis-prone mice received a single-dose of thoracic IR at 15 Gy with a dose rate of 1.9 Gy/min and were treated as described in Example 2. The mice were sacrificed 2.5 days after IR exposure, and plasma levels of SP-D and IL1a were measured.

Series [9] has as its system mice with IR-induced pneumonitis. As to the kind of experiment: Sub-acute phase of IR-induced pneumonitis: lung tissue and BALF assays. The format is in vivo, C57BL/6 fibrosis-prone mice. The protocol: as §1
Briefly, C57BL/6 fibrosis-prone mice received a thoracic IR and were treated as described in Example 2. The mice were sacrificed 17 days after IR exposure, and lung tissues were harvested. Bronchoalveolar lavage fluid (BALF) assays were performed.

Series [10] relates to IL1a, TNFa, lymphotactin and p-selectin. As to the kind of experiment: Inflammatory mediators, sub-acute phase, GA administered 24 hours after IR exposure. The format is in vivo, mice. The conditions noted are these: GA given 24 hours after thoracic IR at 5, 10 and 15 Gy. The method, then: The administration of GA 24 hours after IR exposure can effectively block the surge in inflammatory responses.

Series [11] relates to mice with IR-induced pulmonary fibrosis. In words: Respiratory rate in IR-induced pulmonary fibrosis (ventilator with pressure plethysmograph). Type of series: in vivo. The method, then: Mice exposed to thoracic IR develops pulmonary fibrosis 6 months after IR exposure at 18 Gy, 8 months after IR exposure at 15 Gy, and 10 months after IR exposure at 12.5 Gy. To access the treatment effects of GA on lung fibrosis and lung function, the respiratory rate, lung density, and lung compliance of the mice were determined.
To assess improvement on respiratory function, mice exposed to thoracic IR at 15 Gy were treated with GA (30-40 mg/kg) q.o.d. or twice/week for 3 months. Mouse respiratory rate was measured using a Harvard rodent ventilator connected to a pressure plethysmograph.

For series [12] the test system is unchanged. In words: Lung compliance (plethysmograph pressure-volume measurements). The format is in vivo. The conditions noted are these: 6.5 months after IR 15 Gy; P<0.05. The method, then:
To assess the effects of GA on lung compliance, mice were anesthetized and their trachea were surgically exposed and incised. An 18-gauge, 1 cm stainless steel tube was inserted into the trachea and secured with surgical sutures. The respiratory rate and tidal volume of the mice were measured by a Harvard rodent ventilator. The average respiratory rate was 150 breaths per minute and the tidal volume was adjusted according to the weight (0.01 ml per gram body weight). The mice were then placed in a plethysmograph for pressure-volume measurements.

For series [13] the test system is unchanged. In words: Lung histology (H&E, trichrome), hydroxyproline and TGFβ in IR-induced fibrosis. The format is in vivo. The method, then:
Briefly, mice treated with GA (40 mg/kg/q.o.d.) for 3 months were sacrificed 7 months after IR exposure at 15 Gy, and lung tissue specimens were stained using hematoxylin and eosin (H&E) stain.
To assess whether GA reduces abnormal collagen deposition in lungs, lung tissue specimen was stained with collagen-binding trichrome blue dye.
The reduction of collagen deposition was further analyzed by measuring the levels of hydroxyproline, a key component of collagen.

Entries after “also recorded” stand apart in the source; their conditions may differ.

glycyrrhizic acid [GLA]: in series [1] (150 mg per day for 3 months from 2nd IR treatment), the “symptoms of pneumonitis or fibrosis” value is reported as “did not exhibit any symptom of pneumonitis or fibrosis; also recorded: mitigates pneumonitis”. Further, in [1] (CT of 1st vs 2nd IR treatment), the “lung density (CT)” value is “significantly reduced”.

In the case of `C[C@@H]1C[C@H]2[C@@H]3CCC4=CC(=O)C=C[C@]4(C)[C@@]3(F)[C@@H](O)C[C@]2(C)[C@@]1(O)C(=O)CO` [dexamethasone, reference compound], in series [2], the “plasma growth hormone (GH) level” value is “increased” and the “reduction in plasma ACTH levels” value is 10-50 fold. Also, in series [3], the “course of pulmonary fibrosis and survival” value was “may result in worsening of pulmonary fibrosis, leading to lung failure or even earlier death”.

As to `Cc1ccc(-c2cc(C(F)(F)F)nn2-c2ccc(S(N)(=O)=O)cc2)cc1` [celebrex, reference compound], in series [4], the “levels of inflammatory mediators (IL1a, TNFa, PF4, VCAM-1) in lung homogenates” value (“levels of inflammatory mediators” below) is “extent of inhibition by GA was comparable”. In series [5], the “plasma exudation and inflammatory cell infiltration into the interstitial space” value is on record as “produced similar treatment effects”. Also, the “lung density (abnormal increase)” value in series [6] is “reduction in lung density by GA is more potent that of celebrex”. In [7] (7.5 months post IR 15 Gy, vehicle-treated mice lost 6-7 g), the body weight result is on record as “less severe loss of BW”.

Turning to `NCCCNCCSP(=O)(O)O` [amifostine, reference compound], the “levels of inflammatory mediators” value in [4] is recorded as “extent of inhibition by GA was comparable”. Also, in [5], the “plasma exudation and inflammatory cell infiltration into the interstitial space” value is “produced similar treatment effects”.

With glycyrrhetinic acid [GA], the “levels of inflammatory mediators” value in series [4] is on record as “effectively reduced levels of IMs; also recorded: inhibition effects”. Further, in [5], the “plasma exudation and inflammatory cell infiltration into the interstitial space” value was “potently suppressed; also recorded: reduces inflammatory cell infiltration and plasma exudation”. Also, in series [8], the “plasma levels of IL1a” value is “effectively reduced; also recorded: reduces plasma levels of SP-D and ILa”; the “plasma levels of SP-D” value is “effectively reduced; also recorded: reduces plasma levels of SP-D”. Further, the “infiltration of neutrophils into the interstitial fluid (lung tissue)” value in series [9] (17 days after IR 15 Gy) is on record as “suppression of infiltration of neutrophils; also recorded: mitigates the sub-acute phase of IR-induced pneumonitis”. In series [9] (17 days after IR 15 Gy, P<0.05), the “myeloperoxidase (MPO) activity in BALF” value is on record as “reduces” and the “neutrophils infiltrated into bronchoalveolar lavage fluid” value is recorded as “reduced; also recorded: reduces the number of neutrophils”. Moreover, in series [9] (17 days after IR exposure, P<0.05), the “levels of lymphotactin and p-selectin” value is on record as “reduced; also recorded: reduces the levels of inflammatory mediators”. In [10], the “levels of IL1a, TNFa, lymphotactin and p-selectin” value is reported as “potently reduced; also recorded: inhibits inflammatory responses”. The respiratory rate entry in series [11] (5 months after IR 18 Gy) is recorded as “reduction of respiratory rate”. Also, the respiratory rate result in series [11] (7 months after IR 15 Gy, GA 30-40 mg/kg q.o.d. or twice/week for 3 months, P<0.05) is given as “effectively reduced; also recorded: reduction of respiratory rate”. In [6] (1 year post IR exposure at 18 Gy, normal control −454, IR without treatment −364), the “Mean Density (lung density)” value was −458 HU. For the same compound, the “lung density (abnormal increase)” value in series [6] was “significantly reduced; also recorded: reduces lung density”. The lung compliance result in series [12] is “potently, and mostly effectively, enhanced”. Besides, the “lung morphology (H&E stain)” value in [13] (GA 40 mg/kg/q.o.d. for 3 months, 7 months after IR 15 Gy) is listed as “near-normal morphology; also recorded: mitigates IR-induced pulmonary fibrosis”. Besides, in series [13] (IR-exposed mice), the “collagen deposition (trichrome blue dye)” value is “reduces collagen deposition; also recorded: mitigates IR-induced lung fibrosis” and the “level of TGFβ” value is reported as “reduced”. In addition, the “hydroxyproline levels in the lungs” value in series [13] (vs IR + vehicle control, P<0.05) is on record as “reduced; also recorded: reduces collagen deposition”. In addition, in [7] (long-term GA treatment), the death during treatment entry is “No mouse died”. In addition, the “side effects (activity, fur morphology, body weight)” value in series [7] (long-term use) is “little side effects”. Besides, the “plasma growth hormone (GH) level” value in series [2] is recorded as “increased”. Further, the “plasma ACTH levels” value in series [2] (40 mg/kg) is recorded as “rapidly returned to normal”.

For the origin of these results see patent US9416151B2, “Use of glycyrrhetinic acid, glycyrrhizic acid and related compounds for prevention and/or treatment of pulmonary fibrosis” (priority 2010, dated 2016).
